# From the supplement of paper PMC11061612
# Assays:
# Assay in all cases: Bliss excess, mean over the matrix (fraction); higher = more synergy
# [1] = system: KOPN-8 (B-Lymphoblastic Leukemia)
# How it was run: (§1)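 Cell lines in DMEM/F12 or RPMI with 10% FBS were plated in 1536-well plates, held 24 hours at 37°C, 5% CO2, then given two-drug dose matrices for 72 hours (DMSO typically 0.2%). Viability was read by CellTiter-Glo 2.0 luminescence and scaled as inhibition from 0 (vehicle wells) to 1 (blank wells). Combination Emax is the second-highest inhibition in the matrix; Bliss excess is observed combination effect minus expected EA + EB − EA·EB, EA and EB being single-agent effects.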
# [2] = system: ML-2 (Acute Myeloid Leukemia)
# How it was run: as §1
# [3] = system: MV-4-11 (Acute Myeloid Leukemia)
# How it was run: as §1
# [4] = system: A4-Fuk (B-Lymphoblastic Leukemia)
# How it was run: as §1
# Hey (Ovarian Carcinoma) = system: Hey (Ovarian Carcinoma)
# How it was run: as §1
# [5] = system: Ca-Ski (Cervical Carcinoma)
# How it was run: as §1
# COLO-679 (Melanoma) = system: COLO-679 (Melanoma)
# How it was run: as §1
# [6] = system: NCI-H650 (Lung Adenocarcinoma)
# How it was run: as §1
# EW-1 (Ewing's Sarcoma) = system: EW-1 (Ewing's Sarcoma)
# How it was run: as §1
# [7] = system: OE33 (Esophageal Adenocarcinoma)
# How it was run: as §1
# [8] = system: G-401 (Other Solid Carcinomas)
# How it was run: as §1
# [9] = system: MDA-MB-453 (Breast Carcinoma)
# How it was run: as §1
# [10] = system: MOLT-4 (T-Lymphoblastic Leukemia)
# How it was run: as §1
# [11] = system: NCI-H1838 (Lung Adenocarcinoma)
# How it was run: as §1
# [12] = system: HCC1937 (Breast Carcinoma)
# How it was run: as §1
# [13] = system: NCI-H1993 (Lung Adenocarcinoma)
# How it was run: as §1
# SK-N-AS (Neuroblastoma) = system: SK-N-AS (Neuroblastoma)
# How it was run: as §1
# [14] = system: SW872 (Other Solid Carcinomas)
# How it was run: as §1
# [15] = system: SNU-387 (Hepatocellular Carcinoma)
# How it was run: as §1
# [16] = system: HAL-01 (B-Lymphoblastic Leukemia)
# How it was run: as §1
SMILES,Bliss excess [1],Bliss excess [2],Bliss excess [3],Bliss excess [4],Bliss excess (Hey (Ovarian Carcinoma)),Bliss excess [5],Bliss excess (COLO-679 (Melanoma)),Bliss excess [6],Bliss excess (EW-1 (Ewing's Sarcoma)),Bliss excess [7],Bliss excess [8],Bliss excess [9],Bliss excess [10],Bliss excess [11],Bliss excess [12],Bliss excess [13],Bliss excess (SK-N-AS (Neuroblastoma)),Bliss excess [14],Bliss excess [15],Bliss excess [16]
"NC1(C(=O)N[C@@H](CCO)c2ccc(Cl)cc2)CCN(c2ncnc3[nH]ccc23)CC1 [Capivasertib] + C[C@@H]1COCCN1C2=NC(=NC(=C2)C3(CC3)[S@](=N)(=O)C)C4=C5C=CNC5=NC=C4 [AZD6738] (first compound max 10 µM, 7x7, partner max 10 µM)",-0.0253,-0.0241,-0.0546,-0.0841,-0.0402,0.0076,-0.128,-0.0441,0.0229,-0.0225,-0.0856,-0.0798,0.0011,-0.0733,-0.0142,-0.0598,-0.0469,-0.0244,-0.0613,-0.0267
"NC1(C(=O)N[C@@H](CCO)c2ccc(Cl)cc2)CCN(c2ncnc3[nH]ccc23)CC1 [Capivasertib] + Cn1cnc2c(F)c(Nc3ccc(Br)cc3Cl)c(C(=O)NOCCO)cc21 [Selumetinib] (first compound max 10 µM, 7x7, partner max 10 µM)",0.106,0.0654,0.0842,0.0675,-0.0041,0.0246,-0.0912,-0.0368,0.0819,0.0301,0.0695,0.0079,0.0752,-0.0124,-0.0079,0.0372,0.0046,0.0256,-0.0521,0.0548
"COc1cccc2c1C(=O)c1c(O)c3c(c(O)c1C2=O)C[C@@](O)(C(=O)CO)C[C@@H]3O[C@H]1C[C@H](N)[C@H](O)[C@H](C)O1 [Doxorubicin] + Cc1cc2ncnn2cc1Nc1ncc2c(n1)n(C1CCOCC1)c(=O)n2C [AZD7648] (first compound max 1 µM, 7x7, partner max 10 µM)",0.119,0.0281,0.137,-0.018,0.13,0.0498,0.0178,0.0195,0.126,0.0114,0.0259,0.0432,0.135,-0.0577,0.005,-0.0182,0.0664,0.0299,0.005,0.0877
"CS(=O)(=O)CCNCc1ccc(-c2ccc3ncnc(Nc4ccc(OCc5cccc(F)c5)c(Cl)c4)c3c2)o1 [Lapatinib] + C[C@@H](Oc1cc(-c2cnn(C3CCNCC3)c2)cnc1N)c1c(Cl)ccc(F)c1Cl [Crizotinib] (first compound max 10 µM, 7x7, partner max 10 µM)",-0.0482,-0.0133,-0.0106,-0.0407,-0.0526,-0.042,-0.066,-0.0521,-0.0239,0.151,-0.0617,0.0232,-0.0084,-0.0919,-0.0404,0.0268,-0.0676,-0.0069,-0.0754,-0.0265
"CC(=O)c1c(C)c2cnc(Nc3ccc(N4CCNCC4)cn3)nc2n(C2CCCC2)c1=O [Palbociclib] + CC1(C)CCC(CN2CCN(c3ccc(C(=O)NS(=O)(=O)c4ccc(NCC5CCOCC5)c([N+](=O)[O-])c4)c(Oc4cnc5[nH]ccc5c4)c3)CC2)=C(c2ccc(Cl)cc2)C1 [Venetoclax] (first compound max 10 µM, 7x7, partner max 1 µM)",-0.0341,0.0634,-0.0213,-0.0926,0.0511,-0.0543,-0.0676,-0.0508,0.0441,-0.0458,0.0529,0.0091,-0.0654,0.0042,-0.0578,0.0108,-0.0354,-0.0244,-0.0558,-0.0461
"CC(=O)c1c(C)c2cnc(Nc3ccc(N4CCNCC4)cn3)nc2n(C2CCCC2)c1=O [Palbociclib] + Cc1c2c(nn1C)CSCc1cc(n(C)n1)CSc1cc(c3ccccc3c1)OCCCc1c(C(=O)O)n(C)c3c-2c(Cl)ccc13 [AZD5991] (first compound max 10 µM, 7x7, partner max 1 µM)",0.0082,0.0133,0.0127,0.0579,-0.0205,-0.0239,-0.107,-0.0583,0.0294,-0.0041,0.0308,-0.0218,-0.0073,-0.0634,-0.0498,0.0186,-0.006,-0.0184,-0.0515,0.0597
"CC(=O)c1c(C)c2cnc(Nc3ccc(N4CCNCC4)cn3)nc2n(C2CCCC2)c1=O [Palbociclib] + Cn1cnc2c(F)c(Nc3ccc(Br)cc3Cl)c(C(=O)NOCCO)cc21 [Selumetinib] (first compound max 10 µM, 7x7, partner max 10 µM)",-0.0208,0.0685,0.0537,0.132,0.0222,-0.0701,0.0157,0.0058,-0.0082,-0.02,-0.0428,-0.036,-0.012,-0.0003,-0.0788,0.0904,0.0583,-0.0263,-0.0425,0.0297
"COc1cccc(OCCCN)c1-c1cc(Nc2cnc(C#N)cn2)n[nH]1 [Prexasertib] + C=CCn1c(=O)c2cnc(Nc3ccc(N4CCN(C)CC4)cc3)nc2n1-c1cccc(C(C)(C)O)n1 [AZD1775] (first compound max 1 µM, partner max 1 µM)",0.0438,0.045,0.0775,-0.0205,0.11,0.0816,0.0059,0.0382,0.0461,0.0352,0.0612,0.0702,0.0873,-0.131,-0.0247,0.0596,0.0218,0.144,0.081,0.0697
"COc1cccc(OCCCN)c1-c1cc(Nc2cnc(C#N)cn2)n[nH]1 [Prexasertib] + CCc1c2c(nc3ccc(O)cc13)-c1cc3c(c(=O)n1C2)COC(=O)[C@]3(O)CC [SN-38] (first compound max 1 µM, 7x7, partner max 0.3 µM)",-0.0147,-0.007,-0.0107,-0.0592,-0.0717,0,-0.111,-0.0227,-0.012,-0.0165,-0.0398,0.0234,-0.0075,-0.0001,-0.011,0.055,0.0088,-0.015,0.0549,-0.0262
"COc1cccc(OCCCN)c1-c1cc(Nc2cnc(C#N)cn2)n[nH]1 [Prexasertib] + CN(C)CCCOc1ccc(-c2ccc3ncc4c(c3c2)n(C2CCOCC2)c(=O)n4C)cn1 [AZD0156] (first compound max 1 µM, 7x7, partner max 1 µM)",0.0171,0.003,-0.0249,-0.0593,-0.0098,-0.0373,0.0127,-0.008,-0.0145,-0.0272,-0.0265,-0.0509,0.0108,-0.0285,0.0409,-0.0768,-0.0026,-0.0035,-0.0232,-0.0002
"COc1cccc(OCCCN)c1-c1cc(Nc2cnc(C#N)cn2)n[nH]1 [Prexasertib] + C[C@@H]1COCCN1C2=NC(=NC(=C2)C3(CC3)[S@](=N)(=O)C)C4=C5C=CNC5=NC=C4 [AZD6738] (first compound max 1 µM, 7x7, partner max 10 µM)",-0.0539,-0.0361,-0.0356,-0.0602,0.007,-0.0134,-0.0836,-0.0278,-0.0158,-0.0334,0.0399,-0.0036,0.0087,-0.174,-0.0129,-0.0176,-0.011,0.01,0.0035,-0.022
"COc1cccc(OCCCN)c1-c1cc(Nc2cnc(C#N)cn2)n[nH]1 [Prexasertib] + Cc1cc2ncnn2cc1Nc1ncc2c(n1)n(C1CCOCC1)c(=O)n2C [AZD7648] (first compound max 1 µM, 7x7, partner max 10 µM)",0.0298,-0.0357,-0.0083,-0.0989,-0.0301,-0.0159,-0.0157,-0.0389,-0.0217,0.0061,-0.0221,-0.0143,0.0091,-0.0126,-0.0594,-0.0683,-0.0015,0.0191,-0.0434,-0.0257
"COc1cccc(OCCCN)c1-c1cc(Nc2cnc(C#N)cn2)n[nH]1 [Prexasertib] + O=C(c1cc(Cc2n[nH]c(=O)c3ccccc23)ccc1F)N1CCN(C(=O)C2CC2)CC1 [Olaparib] (first compound max 1 µM, 7x7, partner max 10 µM)",-0.0105,-0.0006,-0.0247,0.0189,-0.0098,-0.0243,-0.0407,-0.0442,-0.0144,-0.0925,-0.166,-0.128,0.0154,-0.153,-0.103,-0.0685,-0.0412,-0.018,0.0083,0.0006
"CCc1c2c(nc3ccc(O)cc13)-c1cc3c(c(=O)n1C2)COC(=O)[C@]3(O)CC [SN-38] + CN(C)CCCOc1ccc(-c2ccc3ncc4c(c3c2)n(C2CCOCC2)c(=O)n4C)cn1 [AZD0156] (first compound max 0.3 µM, 7x7, partner max 1 µM)",0.0362,0.0256,0.0414,0.0222,0.0372,0.0459,-0.0767,-0.0066,0.0608,0.0575,0.0568,-0.0505,0.069,-0.0741,0.0605,-0.0008,-0.0061,0.0048,-0.0373,0.0451
"Cn1cnc2c(F)c(Nc3ccc(Br)cc3Cl)c(C(=O)NOCCO)cc21 [Selumetinib] + C=CCn1c(=O)c2cnc(Nc3ccc(N4CCN(C)CC4)cc3)nc2n1-c1cccc(C(C)(C)O)n1 [AZD1775] (first compound max 10 µM, partner max 1 µM)",0.0681,-0.0186,0.0249,-0.0651,-0.0363,0.0199,-0.0285,0.0099,-0.0347,-0.0911,-0.0483,-0.0065,-0.02,-0.0506,-0.0357,0.0225,0.0024,0.0086,-0.0766,0.0056
